ChEMBL document CHEMBL3352218, “Structural basis for inhibition of mycobacterial and human adenosine kinase by 7-substituted 7-(Het)aryl-7-deazaadenine ribonucleosides” (J Med Chem, 2014)
In brackets after ≈: the same amount, converted by molar mass. Activity calls are given as the source filed them. The calls are words filed in the database; no cut-off is given here.

How the values were obtained:
[1] = Inhibition of Mycobacterium tuberculosis ADK expressed in Escherichia coli BL21(DE3) cells using [3H]adenosine by liquid scintillation counting method
[2] = molecular target: T1, Adenosine kinase (Homo sapiens, UniProt P55263); experiment: Activity of human ADK expressed in Escherichia coli BL21(DE3) cells assessed as compound phosphorylation by measuring conversion of compound to 5'-phosphate; parameters: concentration or dose not given beside the values
Target sequence in this assay (P55263 2-362 limits assumed): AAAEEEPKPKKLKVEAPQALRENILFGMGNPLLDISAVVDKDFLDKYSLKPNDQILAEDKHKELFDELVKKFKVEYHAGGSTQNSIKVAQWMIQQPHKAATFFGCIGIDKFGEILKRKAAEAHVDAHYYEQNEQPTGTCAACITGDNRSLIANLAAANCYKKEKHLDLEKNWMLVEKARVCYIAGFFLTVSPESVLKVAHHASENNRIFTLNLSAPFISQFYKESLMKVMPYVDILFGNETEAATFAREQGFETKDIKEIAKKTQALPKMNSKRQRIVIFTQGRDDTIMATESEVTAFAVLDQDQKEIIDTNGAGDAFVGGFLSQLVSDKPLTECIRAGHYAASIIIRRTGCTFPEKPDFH

[3] = test system: BJ; experiment: Cytotoxicity against human BJ cells by MTT assay; type: functional
[4] = molecular target: T1, Adenosine kinase; experiment: Mixed competitive inhibition of human ADK expressed in Escherichia coli BL21(DE3) cells using varying adenosine levels by Lineweaver-Burk plot
Target sequence in this assay (P55263 2-362 limits assumed): as above

[5] = test system: Mycobacterium tuberculosis; experiment: Binding affinity to Mycobacterium tuberculosis ADK expressed in Escherichia coli BL21(DE3) cells assessed as relative STD enhancements of signal from H-1' at 500 uM by 1H STD NMR spectroscopy
[6] = test system: Mycobacterium tuberculosis; experiment: Activity of Mycobacterium tuberculosis ADK expressed in Escherichia coli BL21(DE3) cells assessed as compound phosphorylation by measuring conversion of compound to 5'-phosphate
[7] = test system: Mycobacterium tuberculosis; experiment: Binding affinity to Mycobacterium tuberculosis ADK expressed in Escherichia coli BL21(DE3) cells assessed as relative STD enhancements of signal from H-2 at 500 uM by 1H STD NMR spectroscopy
[8] = molecular target: T1, Adenosine kinase; experiment: Binding affinity to human ADK expressed in Escherichia coli BL21(DE3) cells assessed as relative STD enhancements of signal from H-2 at 500 uM by 1H STD NMR spectroscopy
Target sequence in this assay (P55263 2-362 limits assumed): as above

[9] = molecular target: T1, Adenosine kinase; experiment: Binding affinity to free human ADK expressed in Escherichia coli BL21(DE3) cells by two dimensional 15N/1H triple-resonance HSQC NMR spectroscopy
Target sequence in this assay (P55263 2-362 limits assumed): as above

[10] = test system: MRC5; experiment: Cytotoxicity against human MRC5 cells by MTT assay; type: functional
[11] = test system: Mycobacterium tuberculosis; experiment: Antimycobacterial activity against Mycobacterium tuberculosis H37Rv My 331/88 assessed as microbial growth inhibition incubated for 14 days; type: functional; settings: H37Rv My 331/88, 336 h
[12] = molecular target: T1, Adenosine kinase; experiment: Binding affinity to human ADK expressed in Escherichia coli BL21(DE3) cells assessed as relative STD enhancements of signal from H-1' at 500 uM by 1H STD NMR spectroscopy
Target sequence in this assay (P55263 2-362 limits assumed): as above

[13] = test system: Mycobacterium tuberculosis; experiment: Binding affinity to Mycobacterium tuberculosis ADK expressed in Escherichia coli BL21(DE3) cells assessed as relative STD enhancements of signal from H-8 at 500 uM by 1H STD NMR spectroscopy
[14] = test system: Mycobacterium tuberculosis; experiment: Mixed competitive inhibition of Mycobacterium tuberculosis ADK expressed in Escherichia coli BL21(DE3) cells using varying ATP levels by Lineweaver-Burk plot
[15] = molecular target: T1, Adenosine kinase; experiment: Binding affinity to human ADK expressed in Escherichia coli BL21(DE3) cells assessed as relative STD enhancements of signal from H-8 at 500 uM by 1H STD NMR spectroscopy
Target sequence in this assay (P55263 2-362 limits assumed): as above

[16] = test system: Mycobacterium tuberculosis; experiment: Mixed competitive inhibition of Mycobacterium tuberculosis ADK expressed in Escherichia coli BL21(DE3) cells using varying adenosine levels by Lineweaver-Burk plot
[17] = molecular target: T1, Adenosine kinase; experiment: Binding affinity to human ADK expressed in Escherichia coli BL21(DE3) cells in presence of ATPgammaS by two dimensional 15N/1H triple-resonance HSQC NMR spectroscopy
[18] = molecular target: T1, Adenosine kinase; experiment: Binding affinity to human ADK expressed in Escherichia coli BL21(DE3) cells in presence of adenosine by two dimensional 15N/1H triple-resonance HSQC NMR spectroscopy
[19] = molecular target: T1, Adenosine kinase; experiment: Mixed uncompetitive inhibition of human ADK expressed in Escherichia coli BL21(DE3) cells using varying ATP levels by Lineweaver-Burk plot
[20] = molecular target: T1, Adenosine kinase; experiment: Binding affinity to human ADK expressed in Escherichia coli BL21(DE3) cells assessed as relative STD enhancements of signal from Ar at 500 uM by 1H STD NMR spectroscopy
[21] = test system: Mycobacterium tuberculosis; experiment: Binding affinity to Mycobacterium tuberculosis ADK expressed in Escherichia coli BL21(DE3) cells assessed as relative STD enhancements of signal from Ar at 500 uM by 1H STD NMR spectroscopy
[22] = molecular target: T1, Adenosine kinase; experiment: Inhibition of human ADK expressed in Escherichia coli BL21(DE3) cells using [3H]adenosine by liquid scintillation counting method
Target sequence in this assay (P55263 whole entry): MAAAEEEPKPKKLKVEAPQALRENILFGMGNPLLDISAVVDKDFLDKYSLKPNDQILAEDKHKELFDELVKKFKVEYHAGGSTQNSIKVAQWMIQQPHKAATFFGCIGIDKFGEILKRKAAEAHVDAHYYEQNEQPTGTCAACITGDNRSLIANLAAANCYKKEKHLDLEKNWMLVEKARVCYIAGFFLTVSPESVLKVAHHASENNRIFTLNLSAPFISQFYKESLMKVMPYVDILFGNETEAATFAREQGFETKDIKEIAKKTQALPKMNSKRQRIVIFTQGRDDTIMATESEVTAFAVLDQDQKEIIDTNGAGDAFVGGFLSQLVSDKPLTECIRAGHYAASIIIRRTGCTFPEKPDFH

[23] = test system: Mycobacterium tuberculosis; experiment: Binding affinity to Mycobacterium tuberculosis ADK expressed in Escherichia coli BL21(DE3) cells assessed as relative STD enhancements of signal from Ar' at 500 uM by 1H STD NMR spectroscopy
[24] = test system: Mycobacterium tuberculosis; experiment: Binding affinity to Mycobacterium tuberculosis ADK expressed in Escherichia coli BL21(DE3) cells assessed as relative STD enhancements of signal from Ar'' at 500 uM by 1H STD NMR spectroscopy

Structure (SMILES)	IC50 [1] [µM]	Activity [2] [%]	CC50 [3] [µM]	Activity [5] [%]	Activity [6]	Activity [7] [%]	Activity [8] [%]	Activity [9]	CC50 [10] [µM]	MIC [11] [µM]	Activity [12] [%]	Activity [13] [%]	Activity [15] [%]	Activity [17]	Activity [18]	Activity [20] [%]	Activity [21] [%]	IC50 [22] [µM]	Activity [23] [%]	other results
C#Cc1cn([C@@H]2O[C@H](CO)[C@@H](O)[C@H]2O)c2ncnc(N)c12	0.33	62	43.1	100	inactive	63	33	Active	13.4	8 (≈ 2.32 µg/mL)	100	54	17	Active	Active					inhibition [4]: Active; inhibition [14]: Active; inhibition [16]: Active; inhibition [19]: Active
Nc1ncnc2c1c(-c1cccc3c1Oc1ccccc1S3)cn2[C@@H]1O[C@H](CO)[C@@H](O)[C@H]1O	0.3		> 100	100	inactive	50	33	Active	95.1	16 (≈ 7.43 µg/mL)	100	68	39	Active	Active	60	83	> 20		
Nc1ncnc2c1c(-c1nccs1)cn2[C@@H]1O[C@H](CO)[C@@H](O)[C@H]1O	4.5	3	> 100	100	inactive	37	57	Active	25.1	125 (≈ 43.7 µg/mL)	100	33	41	Active	Active	52	34	2.3	45	
CC(C)c1cccc(-c2cn([C@@H]3O[C@H](CO)[C@@H](O)[C@H]3O)c3ncnc(N)c23)c1	2.33		> 100	100	inactive	42	72	Active	> 100	32 (≈ 12.3 µg/mL)	100	42	72	Active	Active	52	37	3.3		
Nc1ncnc2c1c(-c1ccco1)cn2[C@@H]1O[C@H](CO)[C@@H](O)[C@H]1O	2.1	8	18.3	100	inactive	43	64	Active	9.49	62.5 (≈ 20.8 µg/mL)	100	29	36	Active	Active	74	38	> 5	31	Activity [24]: 39%
